Measurements from PubChem BioAssay AID1963830 (Molecular Pharmacology Branch, DTP, NCI, 2024).

System: 922993-354-T-J3-PDC complex spheroid viability
Test: Anticancer human tumor 922993-354-T-J3-PDC patient-derived endometrial carcinoma cell line growth inhibition [POLQ]
Conditions: for IC50: curve of first compound; for viability, T/C: stronger effect = lower value; active means viability on the fitted dose curve at most 10% of control; inactive means the rest
Procedure: Multicellular complex tumor spheroid response to Polymerase (POL) inhibitors (novobiocin, ART-558, RP6685) in combination with a variety of drugs and investigational agents in selected tumor cell lines
The POL inhibitors (novobiocin, ART-558, and RP6685) were evaluated both individually and in combination with standard of care and investigational anticancer small molecules within a complex spheroid model of solid tumors. . Complex spheroids include a stromal component modeled by human endothelial cells (HUVEC) and fibroblasts modeled by human mesenchymal stem cells (MSCs). The concentration ranges selected for each drug and investigational agent were based upon clinically achievable concentrations if the clinical Cmax of the agent was known.
Compounds. The drugs and investigational agents: novobiocin (NSC847541), ART-558 (NSC835418), RP-6685 (NSC848927), peposertib (NSC802822), ceralasertib (NSC780249), elimusertib (NSC800525), camonsertib (NSC841442), AZD-1390 (NSC803789), olaparib (NSC753686), talazoparib (NSC767125), rucaparib (NSC756644), sotorasib (NSC818433), MRTX-1133 (NSC836407), SN-38 (NSC673596), topotecan (NSC609699), epotoside (NSC141540), doxorubicin (NSC123127), gemcitabine (NSC613327), 5-fluorouracil (NSC19893), paclitaxel (NSC125973), vemurafenib (NSC761431), MSA-2 (NSC828583), SN-011 (NSC837082), adavosertib (NSC754352), prexasertib (NSC758257), carboplatin (NSC241240) and oxaliplatin (NSC266046), were obtained from the National Cancer Institute (NCI) Developmental Therapeutics Program Chemical Repository (21). The FDA-approved anticancer drug set is available from the Developmental Therapeutics Program at https://dtp.cancer.gov/organization/dscb/obtaining/. […] The stock solutions were prepared in dimethyl sulfoxide (DMSO, Sigma-Aldrich, St. Louis, MO, cat. D2650), except for the platinum compounds which were prepared in saline (Quality Biological, Gaithersburg, MD, cat. 114-055-101), at 800-fold the tested concentration and stored at -70 degrees C prior to their use. All drugs and investigational agents were tested over a range starting from a high concentration at or near the clinical Cmax and decreasing in half-log increments. If the clinical Cmax for an agent had not been determined, the highest concentration tested was 10 microM, except for SN-38, which was tested at a high concentration of 1 microM.
Cell Culture. All cells were maintained in an incubator at 37 degrees C and 5% CO2 with 95% humidity. The PDC lines were cultured according to standard operating procedures established by the NCI PDMR (https://pdmr.cancer.gov). Table 3 of the manuscript, lists the cell lines along with the number of the three cell types plated to form the mct-spheroids and media for tumor cell growth. After thawing, all PDC lines, except 997537-175-T-J1-PDC and 415267-285-R-J2-PDC, were cultured in Matrigel-coated flasks prepared with a working solution of 1X Ham's F-12 nutrient mix, without supplementation (Thermo Fisher Scientific, cat. 11765054), 100 U/mL penicillin-streptomycin (Thermo Fisher Scientific, cat. 15140122), and 2.5% Matrigel (Corning Inc., Corning, NY, cat. 354248) for the first three passages. The two PDC lines 997537-175-T-J1-PDC and 415267-285-R-J2-PDC were cultured on uncoated flasks. The 857933-349-R-J2-PDC line was cultured in 6C/Colon 1B media containing advanced DMEM/F-12 (Thermo Fisher Scientific, cat. 12634028), 10 mM HEPES (Thermo Fisher Scientific, cat. 15630080), 1X GlutaMAX supplement (Thermo Fisher Scientific, cat. 35050061), 0.1 mg/mL primocin (InvivoGen, San Diego, CA, cat. ant-pm-2), 10% defined fetal bovine serum, heat inactivated (HyClone Laboratories Inc., Logan, UT, cat. SH30070.03HI), 50% L-WRN conditioned media (ATCC, cat. CRL-3276), 1.25 mM N-Acetyl-L-cysteine (Sigma-Aldrich, cat. A9165), 10 mM nicotinamide (Sigma-Aldrich, cat. N0636), 1X B-27 supplement (Thermo Fisher Scientific, cat. 17504044), 1X N-2 supplement (Thermo Fisher Scientific, cat. […]
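Further: spheroids exposed to the agents for one week.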
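Wherever viability, T/C is given: 100% = DMSO vehicle control wells.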

CC(=O)O[C@H]1C(=O)[C@@]2(C)[C@H]([C@H](OC(=O)c3ccccc3)[C@]3(O)C[C@H](OC(=O)[C@H](O)[C@@H](NC(=O)c4ccccc4)c4ccccc4)C(C)=C1C3(C)C)[C@]1(OC(C)=O)CO[C@@H]1C[C@@H]2O + COC1C(OC(N)=O)C(O)C(Oc2ccc3c(O)c(NC(=O)c4ccc(O)c(CC=C(C)C)c4)c(=O)oc3c2C)OC1(C)C
2990 nM: IC50 (second compound 0.316 µM)
2000 nM: IC50 (second compound 10 µM)
> 3000 nM: IC50 (second compound 0.1 µM) | IC50 (second compound 1 µM) | IC50 (second compound 3.16 µM)
inactive: viability, T/C (second compound 0.0316 µM, first compound 0.00949 µM) 97% | viability, T/C (second compound 0.0316 µM, first compound 0.03 µM) 96.3% | viability, T/C (second compound 0.0316 µM, first compound 0.0949 µM) 95.1% | viability, T/C (second compound 0.0316 µM, first compound 0.3 µM) 105% | viability, T/C (second compound 0.0316 µM, first compound 0.949 µM) 85.5% | viability, T/C (second compound 0.0316 µM, first compound 3 µM) 45.6% | viability, T/C (second compound 0.1 µM, first compound 0.00949 µM) 102% | viability, T/C (second compound 0.1 µM, first compound 0.03 µM) 101% | viability, T/C (second compound 0.1 µM, first compound 0.0949 µM) 107% | viability, T/C (second compound 0.1 µM, first compound 0.3 µM) 106% | viability, T/C (second compound 0.1 µM, first compound 0.949 µM) 83.6% | viability, T/C (second compound 0.1 µM, first compound 3 µM) 55.8% | viability, T/C (second compound 0.316 µM, first compound 0.00949 µM) 97.1% | viability, T/C (second compound 0.316 µM, first compound 0.03 µM) 118% | viability, T/C (second compound 0.316 µM, first compound 0.0949 µM) 104% | viability, T/C (second compound 0.316 µM, first compound 0.3 µM) 97.7% | viability, T/C (second compound 0.316 µM, first compound 0.949 µM) 80.5% | viability, T/C (second compound 0.316 µM, first compound 3 µM) 49.8% | viability, T/C (second compound 1 µM, first compound 0.00949 µM) 96.9% | viability, T/C (second compound 1 µM, first compound 0.03 µM) 99.4% | viability, T/C (second compound 1 µM, first compound 0.0949 µM) 104% | viability, T/C (second compound 1 µM, first compound 0.3 µM) 104% | viability, T/C (second compound 1 µM, first compound 0.949 µM) 79.9% | viability, T/C (second compound 1 µM, first compound 3 µM) 53.2% | viability, T/C (second compound 3.16 µM, first compound 0.00949 µM) 99.2% | viability, T/C (second compound 3.16 µM, first compound 0.03 µM) 92.8% | viability, T/C (second compound 3.16 µM, first compound 0.0949 µM) 101% | viability, T/C (second compound 3.16 µM, first compound 0.3 µM) 99.3% | viability, T/C (second compound 3.16 µM, first compound 0.949 µM) 76.9% | viability, T/C (second compound 3.16 µM, first compound 3 µM) 54.9% | viability, T/C (second compound 10 µM, first compound 0.00949 µM) 84.7% | viability, T/C (second compound 10 µM, first compound 0.03 µM) 82.2% | viability, T/C (second compound 10 µM, first compound 0.0949 µM) 94.9% | viability, T/C (second compound 10 µM, first compound 0.3 µM) 68.9% | viability, T/C (second compound 10 µM, first compound 0.949 µM) 64% | viability, T/C (second compound 10 µM, first compound 3 µM) 43.3%
2640 nM: IC50 (second compound 0.0316 µM)
